Data from patent US5447911A, “Ghilanten antimetastatic principle from the south american leech, Haementeria ghilianii” (Merrell Dow Pharmaceuticals Inc., priority 1994, dated 1995).

Tested on: B16 melanoma F10 cells
Test: Metastatic spread of B16-F10 melanoma cells to the lungs of C57/BL mice
Type: in vivo
Protocol: To confirm the anti-metastatic activity of the proteinaceous substances of this invention, 1×10^5 viable B16 melanoma F10 line cells were injected i.v. through the tail vein of C57/BL mice. The antimetastatic factor was then administered i.v. at -2, +2, +4 and +6 hours relative to the tumor innoculum at t=0 hours. At the end of 15 days, the animals were sacrificed and the number of metastatic foci in the lungs were quantitated. The results observed are summarized in Table 1 below, with n indicating the number of animals used in the test.
B16 melanoma F10 cells (1 × 10^5 cells/animal) were injected i.v.
into the tail vein of C57/Bl mice on day 0. Vehicle: 10 mM Hepes, 0.15M
NaCl, pH 7.4 containing 10 mg/ml BSA; recombinantHirudin (25 antithrombin
units) and FXa inhibitor (1-2 μg) were injected into the mice i.v. at
-2, +2, +4, +6 hrs. after tumor cell innoculation. The animals were
sacrificed at 14 days post tumor cell innoculation. The lungs were
dissected, fixed, and the number of pulmonary metas tases were determined
under a dissecting microscope. […]

[1] = Table 1, recombinant hirudin 25 antithrombin units or FXa inhibitor 1-2 μg i.v. at -2, +2, +4, +6 hrs, versus vehicle control

Hirudin
No. of Metastatic Foci (Mean + S.E.; n = 6) (Table 1, lungs, recombinant hirudin 25 antithrombin units or FXa inhibitor 1-2 μg i.v. at -2, +2, +4, +6 hrs, 14 days post innoculation): 198 ± 10
% Inhibition (metastatic foci) [1]: 0%
% Potentiation (metastatic foci) [1]: 21%
Effect on metastasis (in words) (administered -2, +2, +4 and +6 hours relative to tumor cell innoculation): caused a moderate increase in metastatic foci
